Experimental findings from ChEMBL document CHEMBL3588827, “A new class of ghrelin O-acyltransferase inhibitors incorporating triazole-linked lipid mimetic groups” (Bioorg Med Chem Lett, 2015) are described below.

By IC50 is commonly meant the concentration at which inhibition is half-maximal.

Where only a bound is given, the exact number is not on record here.

This experiment addresses T1, Membrane-bound ghrelin O-acyltransferase MBOAT4 (Homo sapiens, UniProt Q96T53).
T1 sequence (Q96T53 whole entry): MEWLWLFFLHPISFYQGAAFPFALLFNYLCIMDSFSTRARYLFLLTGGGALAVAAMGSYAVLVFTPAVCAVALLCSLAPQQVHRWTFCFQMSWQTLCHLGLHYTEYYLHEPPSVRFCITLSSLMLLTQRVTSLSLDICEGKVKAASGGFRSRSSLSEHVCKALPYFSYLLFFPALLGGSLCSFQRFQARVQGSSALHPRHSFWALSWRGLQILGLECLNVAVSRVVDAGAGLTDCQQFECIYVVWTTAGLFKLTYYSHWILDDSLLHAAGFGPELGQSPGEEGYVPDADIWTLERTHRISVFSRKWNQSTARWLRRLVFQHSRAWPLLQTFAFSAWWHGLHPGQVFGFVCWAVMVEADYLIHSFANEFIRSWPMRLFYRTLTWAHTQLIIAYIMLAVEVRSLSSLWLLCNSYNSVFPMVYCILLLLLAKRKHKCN
As to the kind of experiment: Inhibition of human GOAT octanoylation activity expressed in insect Sf9 cell membranes using GSSFLCAcDan as substrate after 1 hr by reverse phase HPLC with fluorescence detection method.
In the case of `CC(C)C[C@H](NC(=O)[C@H](Cc1ccccc1)NC(=O)[C@H](Cn1cc(CCCc2ccccc2)nn1)NC(=O)[C@H](CO)NC(=O)CN)C(N)=O`, the IC50 amounted to 0.7 µM. This lies in the sub-micromolar range.
Turning to `CC(C)C[C@H](NC(=O)[C@H](Cc1ccccc1)NC(=O)[C@H](Cn1cc(Cc2ccccc2)nn1)NC(=O)[C@H](CO)NC(=O)CN)C(N)=O`, the concentration for half-maximal inhibition (IC50) came out at 6 µM.
The same measure for `CC(C)C[C@H](NC(=O)[C@H](Cc1ccccc1)NC(=O)[C@H](Cn1cc(CCc2ccccc2)nn1)NC(=O)[C@H](CO)NC(=O)CN)C(N)=O`: 3.8 µM; for `CC(C)C[C@H](NC(=O)[C@H](Cc1ccccc1)NC(=O)[C@H](Cn1cc(CCCCc2ccccc2)nn1)NC(=O)[C@H](CO)NC(=O)CN)C(N)=O`: over 1 µM.
